Legend:
[1] = Solubility determination of selected folate salts in solvents; format: physicochemical; details: mass-% (m/m), 20° C.; for Solubility in DMSO: solvent DMSO; for Solubility in EtOH: solvent EtOH; for Solubility in MeOH: solvent MeOH; for Solubility in Glycerine: solvent glycerine; for Solubility in i-PrOH: solvent i-PrOH; for Solubility in n-PrOH: solvent n-PrOH
Method: Solubility determination of selected folate salts was in general performed as follows:
A quantity of the salt corresponding to the expected solubility (between 1-100 mg) was provided and mixed with increments of the respective solvent until a solution was formed.

[2] = cited from earlier work
[3] = glycerine; previous data confirmed by the test; cited from earlier work

Row | Molecule | Solubility in DMSO [1] | Solubility in EtOH [1] | Solubility in MeOH [1] | Solubility in Glycerine [1] | Solubility in i-PrOH [1] | Solubility in n-PrOH [1] | Solubility in dilute acid or dilute alkali ([2]; dilute acid or dilute alkali) | Solubility in organic solvents ([2]; organic solvents) | Solubility in water ([2]; water at 25° C.) | Solubility of calcium salt, previous data [3]
1 | 5-Formyl-(6S)-tetrahydrofolic acid di acetylcholine salt [FTHF di acetylcholine] | 0.25% | 55.80% | 55.80% | 24.10% | 0.50% | 55.90% |  |  |  | 
2 | 5-methyl-tetrahydrofolic acid glucosamine salt [5-MTHF-glucosamine] |  |  |  |  |  |  | soluble | insoluble | very soluble | 
3 | CN1c2c([nH]c(N)nc2=O)NC[C@@H]1CNc1ccc(C(=O)N[C@@H](CCC(=O)[O-])C(=O)[O-])cc1.[Ca+2] [calcium salt of 5-methyl-(6S)-tetrahydrofolic acid] |  |  |  |  |  |  |  |  |  | approximately 1%
4 | 5-Methyl-(6S)-tetrahydrofolic acid di acetylcholine salt [MTHF di acetylcholine] | 47.62% | 50.00% | >>50% | 24.10% | 50.00% | 50.00% |  |  |  | 
